From ChEMBL document CHEMBL1201862, “PubChem BioAssay data set” (2004)
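Briefly, cells in 96-well plates were exposed to five compound concentrations for 48 h, and endpoints were estimated by linear interpolation. Here, GI50 denotes the concentration required for 50% inhibition of growth.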 Activity calls are given as the source filed them. No stated cut-off is given here; in the data, active = GI50 up to about 1.1 µM and inactive = higher.

Tests used:
Assay in all cases: NCI tumour cell line growth inhibition, 48 h
A549 = tested on: A549
ACHN = tested on: ACHN
CAKI-1 = tested on: CAKI-1
EKVX = tested on: EKVX
HL-60 = tested on: HL-60
HOP-92 = tested on: HOP-92
Hs-578T = tested on: Hs-578T
M14 = tested on: M14
MDA-MB-435 = tested on: MDA-MB-435
MDA-N = tested on: MDA-N
NCI-H226 = tested on: NCI-H226
NCI-H460 = tested on: NCI-H460
NCI/ADR-RES = tested on: NCI/ADR-RES
RXF 393 = tested on: RXF 393
SK-MEL-2 = tested on: SK-MEL-2
SK-OV-3 = tested on: SK-OV-3
SR = tested on: SR
TK-10 = tested on: TK-10
UACC-62 = tested on: UACC-62
HOP-62 = tested on: HOP-62

| Structure (SMILES) | GI50 (A549) | GI50 (ACHN) | GI50 (CAKI-1) | GI50 (EKVX) | GI50 (HL-60) | GI50 (HOP-92) | GI50 (Hs-578T) | GI50 (M14) | GI50 (MDA-MB-435) | GI50 (MDA-N) | GI50 (NCI-H226) | GI50 (NCI-H460) | GI50 (NCI/ADR-RES) | GI50 (RXF 393) | GI50 (SK-MEL-2) | GI50 (SK-OV-3) | GI50 (SR) | GI50 (TK-10) | GI50 (UACC-62) | GI50 (HOP-62) |
| --- | --- | --- | --- | --- | --- | --- | --- | --- | --- | --- | --- | --- | --- | --- | --- | --- | --- | --- | --- | --- |
| CCOC(C[Se]CC(OCC)OCC)OCC | 75.5 µM (inactive) | > 100 µM (inactive) | 59.4 µM (inactive) | > 100 µM (inactive) | 16.8 µM (inactive) | 39.6 µM (inactive) | 14.9 µM (inactive) | 52.8 µM (inactive) | 36.4 µM (inactive) | 89.7 µM (inactive) | 21.5 µM (inactive) | 65.9 µM (inactive) | 50.9 µM (inactive) | 28.4 µM (inactive) | 48.5 µM (inactive) | 74.6 µM (inactive) | > 100 µM (inactive) | 53.6 µM (inactive) | 28.4 µM (inactive) | – |
| COc1ccc2c(c1)c(=O)c1c(NCCCN(C)C)ccc3ncn2c31 | 1.19 µM (inactive) | 0.659 µM (active) | 5.68 µM (inactive) | 13.8 µM (inactive) | 4.42 µM (inactive) | 4.13 µM (inactive) | 10.6 µM (inactive) | 4.78 µM (inactive) | 6.05 µM (inactive) | 5.37 µM (inactive) | 2.9 µM (inactive) | 1.39 µM (inactive) | 0.832 µM (active) | 0.366 µM (active) | 14.2 µM (inactive) | 8.38 µM (inactive) | 2.19 µM (inactive) | 6.1 µM (inactive) | 11.4 µM (inactive) | 0.783 µM (active) |
| COc1cccc2c1C(=O)OC2c1cccc2ccccc12 (configuration not stated) | > 100 µM (inactive) | > 100 µM (inactive) | > 100 µM (inactive) | > 100 µM (inactive) | > 46.6 µM (inactive) | 30.9 µM (inactive) | 33 µM (inactive) | > 100 µM (inactive) | > 100 µM (inactive) | > 100 µM (inactive) | 92.9 µM (inactive) | 98.9 µM (inactive) | 53.3 µM (inactive) | 31.5 µM (inactive) | > 100 µM (inactive) | > 73.6 µM (inactive) | > 100 µM (inactive) | > 73.3 µM (inactive) | > 100 µM (inactive) | 36 µM (inactive) |
| N#C/C(C(=O)CCl)=C1\Nc2ccccc2O1 | 6.1 µM (inactive) | – | 3.65 µM (inactive) | – | 2.43 µM (inactive) | 3.88 µM (inactive) | 6.01 µM (inactive) | 3.9 µM (inactive) | 3.24 µM (inactive) | 3.71 µM (inactive) | 2.3 µM (inactive) | 3.19 µM (inactive) | 2.2 µM (inactive) | 1.85 µM (inactive) | 3.3 µM (inactive) | 12.1 µM (inactive) | 3.84 µM (inactive) | 7.01 µM (inactive) | 2.35 µM (inactive) | 4.89 µM (inactive) |
| CCOC(=O)C(NC(=O)OCc1ccccc1)C(=O)O (configuration not stated) | > 100 µM (inactive) | > 100 µM (inactive) | > 100 µM (inactive) | > 100 µM (inactive) | > 100 µM (inactive) | > 100 µM (inactive) | > 100 µM (inactive) | > 100 µM (inactive) | > 100 µM (inactive) | > 100 µM (inactive) | > 100 µM (inactive) | > 100 µM (inactive) | > 100 µM (inactive) | > 100 µM (inactive) | > 100 µM (inactive) | – | > 100 µM (inactive) | > 100 µM (inactive) | > 100 µM (inactive) | > 100 µM (inactive) |
| S=C1Cc2c([nH]c3ccccc23)-c2ccccc2N1 | 23 µM (inactive) | 23.6 µM (inactive) | 23.3 µM (inactive) | 40.4 µM (inactive) | > 100 µM (inactive) | 32.3 µM (inactive) | 61 µM (inactive) | > 100 µM (inactive) | > 100 µM (inactive) | 96.8 µM (inactive) | 29.5 µM (inactive) | 35.4 µM (inactive) | 50 µM (inactive) | 18.3 µM (inactive) | – | 24.2 µM (inactive) | 42 µM (inactive) | 21.5 µM (inactive) | 72.3 µM (inactive) | 25.9 µM (inactive) |
| O=C1c2ccccc2C(=O)[C@@]23O[C@@]12C1(Oc2cccc4cccc(c24)O1)[C@@H]1O[C@@H]1[C@@H]3O | 18.4 µM (inactive) | 12.5 µM (inactive) | 11.1 µM (inactive) | 20.5 µM (inactive) | 1.66 µM (inactive) | 15.8 µM (inactive) | 14.9 µM (inactive) | 8.97 µM (inactive) | 17.2 µM (inactive) | 9.46 µM (inactive) | 8.39 µM (inactive) | 9.86 µM (inactive) | 5.05 µM (inactive) | 2.95 µM (inactive) | 19.2 µM (inactive) | 15.1 µM (inactive) | 1.43 µM (inactive) | 11.3 µM (inactive) | 14.2 µM (inactive) | 12.6 µM (inactive) |
| COCN1C(=O)[C@@H]2C[C@@H](O)CN2C(=O)c2ccccc21 | > 100 µM (inactive) | > 100 µM (inactive) | > 100 µM (inactive) | > 100 µM (inactive) | 60.5 µM (inactive) | > 100 µM (inactive) | > 100 µM (inactive) | > 100 µM (inactive) | > 100 µM (inactive) | > 100 µM (inactive) | – | > 100 µM (inactive) | > 100 µM (inactive) | > 100 µM (inactive) | > 100 µM (inactive) | > 100 µM (inactive) | > 100 µM (inactive) | > 100 µM (inactive) | > 100 µM (inactive) | > 100 µM (inactive) |
| CC(C)(C)OC(=O)C1CCC/C1=N/Nc1ccc([N+](=O)[O-])cc1[N+](=O)[O-] (configuration not stated) | 31.9 µM (inactive) | 45.3 µM (inactive) | 39.4 µM (inactive) | 24.7 µM (inactive) | 44.3 µM (inactive) | 47.1 µM (inactive) | 48.2 µM (inactive) | 39.6 µM (inactive) | 21.2 µM (inactive) | 30.8 µM (inactive) | 21.3 µM (inactive) | 37.9 µM (inactive) | 26.1 µM (inactive) | 33.2 µM (inactive) | – | 43 µM (inactive) | 26.1 µM (inactive) | 43.7 µM (inactive) | 26.9 µM (inactive) | 45.6 µM (inactive) |
| COc1cc([C@H]2CC(=O)C[C@@H](c3cc(OC)c(OC)c(OC)c3)C23C(=O)c2ccccc2C3=O)cc(OC)c1OC | > 100 µM (inactive) | > 100 µM (inactive) | > 100 µM (inactive) | 91.8 µM (inactive) | > 100 µM (inactive) | > 100 µM (inactive) | > 100 µM (inactive) | > 100 µM (inactive) | > 100 µM (inactive) | > 100 µM (inactive) | > 100 µM (inactive) | > 100 µM (inactive) | > 100 µM (inactive) | > 100 µM (inactive) | > 100 µM (inactive) | > 100 µM (inactive) | > 100 µM (inactive) | > 100 µM (inactive) | > 100 µM (inactive) | > 100 µM (inactive) |
| Cc1[nH]c(-c2ccccc2)c(O)c1C(=O)OC12CC3CC(CC(C3)C1)C2 | 12.1 µM (inactive) | 16.1 µM (inactive) | 20.1 µM (inactive) | 13.8 µM (inactive) | 55.6 µM (inactive) | 18.8 µM (inactive) | 10.3 µM (inactive) | 12.4 µM (inactive) | 15 µM (inactive) | 17.4 µM (inactive) | 14.1 µM (inactive) | 7.82 µM (inactive) | 13.7 µM (inactive) | 6.73 µM (inactive) | 16.7 µM (inactive) | 14.7 µM (inactive) | 12.6 µM (inactive) | – | 17.3 µM (inactive) | 14.7 µM (inactive) |
| Cc1cccc2cc3ccc4ccccc4c3cc12 | 37.1 µM (inactive) | 46.7 µM (inactive) | 87.1 µM (inactive) | 21.2 µM (inactive) | 24.9 µM (inactive) | 98.9 µM (inactive) | > 100 µM (inactive) | 48.5 µM (inactive) | 47.6 µM (inactive) | 38.9 µM (inactive) | 37 µM (inactive) | 25.4 µM (inactive) | > 100 µM (inactive) | 75.2 µM (inactive) | 26.5 µM (inactive) | > 100 µM (inactive) | 22.2 µM (inactive) | 36.6 µM (inactive) | 80.9 µM (inactive) | 68.4 µM (inactive) |
| Cc1cccc(N2C(=O)C3ON(C(C(N)=O)c4ccccc4)C(c4c5ccccc5c(Cl)c5ccccc45)C3C2=O)c1C (configuration not stated) | 14.3 µM (inactive) | 9.16 µM (inactive) | 9.06 µM (inactive) | 9.23 µM (inactive) | 4.12 µM (inactive) | 7.89 µM (inactive) | 16.6 µM (inactive) | 7.93 µM (inactive) | 6.31 µM (inactive) | 3.3 µM (inactive) | 7.13 µM (inactive) | 9.71 µM (inactive) | 10.9 µM (inactive) | 5.66 µM (inactive) | 9.23 µM (inactive) | 18.8 µM (inactive) | 1.69 µM (inactive) | 11.8 µM (inactive) | 6.84 µM (inactive) | 10.6 µM (inactive) |
| COC(=O)c1ccccc1NC(=O)C(=O)CC(=O)c1ccccc1NC1=CC(=O)C(=O)c2ccccc21 | 16.3 µM (inactive) | 14.5 µM (inactive) | 23.8 µM (inactive) | 44.8 µM (inactive) | 1.55 µM (inactive) | 5.16 µM (inactive) | 7.45 µM (inactive) | 5.12 µM (inactive) | 4.15 µM (inactive) | 1.71 µM (inactive) | 25.9 µM (inactive) | 19.7 µM (inactive) | 2.33 µM (inactive) | 15.6 µM (inactive) | 12.5 µM (inactive) | 32.5 µM (inactive) | 2.67 µM (inactive) | 67.6 µM (inactive) | 8.87 µM (inactive) | 22.7 µM (inactive) |
